Assay results taken from publication PMC2811219 (The Journal of infectious diseases, 2010).
Read-outs that look alike come from different tables or passages of the source.

Tests used:
[1] = test system: HIV-1; experiment: Anti-HIV-1 activity in CEM cell cultures; assay type: cell-based; conditions: for EC50: read-out: EC50 (CEM), effective concentration that inhibits 50% of HIV-1 replication, CEM cells
[2] = test system: HIV-2ROD; experiment: Anti-HIV-2 activity in CEM cells; assay type: cell-based; conditions: HIV-2ROD-infected CEM cells; data not shown
[3] = Viability assay in MT-4 cell cultures; assay type: cell-based, human; conditions: human, MT-4 cells
[4] = in vitro; assay type: cell-based, human; conditions: human
[5] = test system: HSV-2 strain G; experiment: HSV-2 replication in human tonsillar tissue; assay type: cell-based; conditions: 1μM, day 12 post infection, n=4
[6] = test system: HIV-1 NL4.3 (X4); experiment: p24 production in virus-infected PBMC, HIV-1 NL4.3; assay type: cell-based; conditions: read-out: EC50, NL4.3
[7] = test system: HSV-2 (G); experiment: HSV-2 replication in HIV-1/HSV-2 coinfected tonsillar tissue; assay type: cell-based; conditions: 1μM, n=5
[8] = test system: HIV-1 ID12, R5 (clade A/E); experiment: p24 production in virus-infected PBMC, HIV-1 ID12; assay type: cell-based; conditions: read-out: EC50, ID12
[9] = test system: clinical ACV-resistant HSV-2 isolate; experiment: ACV-resistant HSV-2 replication in human tonsillar tissue; assay type: cell-based; conditions: variant without functional thymidine kinase, n=2
[10] = test system: HIV-1LAI.04; experiment: HIV-1 replication in HIV-1/HSV-2 coinfected tonsillar tissue; assay type: cell-based; conditions: 1μM, n=5
[11] = test system: HIV-1 UG 270, X4 (clade D); experiment: p24 production in virus-infected PBMC, HIV-1 UG 270; assay type: cell-based; conditions: read-out: EC50, UG 270
[12] = test system: HIV-1 BaL (R5); experiment: p24 production in virus-infected PBMC, HIV-1 BaL; assay type: cell-based; conditions: read-out: EC50, BaL
[13] = test system: HIV-1 US 3, R5 (clade B); experiment: p24 production in virus-infected PBMC, HIV-1 US 3; assay type: cell-based; conditions: read-out: EC50, US 3
[14] = test system: HIV-1 ETH 2220, R5 (clade C); experiment: p24 production in virus-infected PBMC, HIV-1 ETH 2220; assay type: cell-based; conditions: read-out: EC50, ETH 2220
[15] = test system: CEM cells; experiment: in vitro; assay type: cell-based, human
[16] = test system: HIV-1LAI.04; experiment: Anti-HIV-1 activity in MT-4 cell cultures; assay type: cell-based; conditions: MT-4 cells; for EC50: read-out: EC50 (MT-4), effective concentration that inhibits 50% of HIV-1 replication
[17] = test system: MT-4 cells; experiment: MT-4 cell growth / proliferation; assay type: cell-based, human; conditions: read-out: IC50 (MT-4), concentration that inhibit cell growth by 50%
[18] = test system: HIV-1BaL; experiment: HIV-1 replication in human cervicovaginal tissue ex vivo; assay type: cell-based
[19] = test system: CEM cells; experiment: CEM cell growth; assay type: cell-based, human; conditions: read-out: IC50 (CEM), concentration that inhibit cell growth by 50%
[20] = test system: HIV-1 UG275, R5 (clade A); experiment: p24 production in virus-infected PBMC, HIV-1 UG275; assay type: cell-based; conditions: read-out: EC50, UG275
[21] = test system: PBMC; experiment: PBMC MTS viability staining; assay type: cell-based, human
[22] = test system: HIV-1LAI.04; experiment: HIV-1 replication in human tonsillar tissue ex vivo; assay type: cell-based
[23] = test system: HIV-1LAI.04; experiment: Flow-cytometry of HIV-infected; assay type: cell-based; conditions: tonsillar tissue, day 12 post infection; control 11.71 ± 3.87%; n=4
[24] = test system: MT-4 cells; experiment: Viability assay in MT-4 cell cultures; assay type: cell-based, human
[25] = test system: human tonsillar tissue T cells; assay type: cell-based

| SMILES | EC50 [6] | EC50 [8] | EC50 [1] | EC50 [11] | EC50 [12] | EC50 [13] | EC50 [14] | CC50 [15] | SI, selective index or ratio of CC50 (MT-4)/EC50 [16] | EC50 [16] | IC50 [17] | IC50 [19] | EC50 [20] | CC50 [24] | further results |
| --- | --- | --- | --- | --- | --- | --- | --- | --- | --- | --- | --- | --- | --- | --- | --- |
| Nc1nc2c(ncn2COCCO)c(=O)[nH]1 [ACV, acyclovir, reference compound] |  |  |  |  |  |  |  |  |  |  |  |  |  |  | suppression of viral replication ([1]; HIV-1IIIB-infected CEM cells, data not shown): did not efficiently suppress viral replication; suppression of viral replication [2]: did not efficiently suppress viral replication; CC50 [3]: > 150 µM; CC50 [4]: > 150 µM |
| C[C@H](NP(=O)(OCCOCn1cnc2c(=O)[nH]c(N)nc21)Oc1ccccc1)C(=O)OCc1ccccc1 (stereo partly shown) [Cf2648] | 13 ± 3.8 µM | 16 ± 15 µM | 6.4 ± 5.8 µM | 55 ± 40 µM | 6.6 ± 1.4 µM | 28 ± 12 µM | 19 ± 14 µM | > 150 µM | > 26 | 5.7 ± 1.6 µM | 34 ± 11 µM | 33 ± 7.1 µM | 25 ± 10 µM |  | suppression of HSV-2 replication [5]: 99.6 ± 0.3%; inhibition of HSV-2 replication in HIV-1/HSV-2 coinfected lymphoid tissue [7]: 99.6 ± 0.2%; inhibition of replication of ACV-resistant HSV-2 variant [9]: 94.9 ± 5.1%; inhibition of HIV replication in HIV-1/HSV-2 coinfected lymphoid tissue [10]: 81.1 ± 5.9%; inhibition of HIV-1 replication, drug removed on day 3 post-infection ([18]; cervicovaginal tissue, 1μM, not replenished, n=4): 57.1 ± 16.0%; inhibition of HIV replication, drug replenished at each medium change ([18]; cervicovaginal tissue, 1μM, treated overnight then infected with HIV-1BaL, n=2): 100%; inhibition of HIV replication on day 12 post-infection, 3-day incubation followed by drug removal ([18]; cervicovaginal tissue, 5μM, n=3): 90.3 ± 9.2%; CC50 ([21]; read-out: CC50, 50% cytostatic concentration, PBMC, MTS viability staining method): 319 µM |
| COC(=O)[C@H](C)NP(=O)(OCCOCn1cnc2c(=O)[nH]c(N)nc21)Oc1cccc2ccccc12 (stereo partly shown) [Cf2649] | 11 ± 3.1 µM | 53 ± 4.4 µM |  | 10 ± 12 µM | 5.2 ± 2.4 µM | 4.9 ± 6.1 µM | 6.8 ± 3.9 µM | > 150 µM | > 32 | 4.7 ± 2.1 µM | 19 ± 3.2 µM | 57 ± 45 µM | 16 ± 11 µM | > 150 µM | suppression of HIV replication in tonsillar tissue ([22]; 1 μM): completely suppresses HIV replication; inhibition of HIV-1 replication, treatment started 2 days post-infection ([22]; tonsillar tissue, 1μM, n=3): 94.4 ± 5.5%; inhibition of HIV-1 replication, treatment started 4 days post-infection ([22]; tonsillar tissue, 1μM, n=3): 90.2 ± 9.8%; inhibition of HIV-1 replication, treatment started 6 days post-infection ([22]; tonsillar tissue, 1μM, n=3): 54.1 ± 13.5%; inhibition of HIV-1 replication, treatment started simultaneously with infection ([22]; tonsillar tissue, 1μM, n=3): 96.9 ± 3%; fraction of CD8- T cells HIV-infected (p24+) [23]: 3.16 ± 1.63%; suppression of HIV-1BAL replication in cervicovaginal tissue ([18]; 1 μM for 12 days, relative to donor-matched infected tissues, n=4): 75.8 ± 10.4%; CC50 [21]: 352 µM |
| CCOC(=O)[C@H](C)NP(=O)(OCCOCn1cnc2c(=O)[nH]c(N)nc21)Oc1cccc2ccccc12 (stereo partly shown) [Cf2676] |  |  | 12 ± 9.8 µM |  |  |  |  | > 150 µM | > 88 | 1.7 ± 0.8 µM | 12 ± 5.3 µM | 32 ± 7.8 µM |  | > 150 µM |  |
| CC(C)OC(=O)[C@H](C)NP(=O)(OCCOCn1cnc2c(=O)[nH]c(N)nc21)Oc1cccc2ccccc12 (stereo partly shown) [Cf2681] |  |  | 6.2 ± 5.4 µM |  |  |  |  | > 150 µM | > 28 | 5.4 µM | 73 µM | 36 ± 15 µM |  | > 150 µM | effect on numbers of CD4+ T cells and subsets in treated tissues [25]: did not affect the numbers of these cells |
